Assay results taken from PubChem BioAssay AID434987 (Southern Research Specialized Biocontainment Screening …, 2010).
Active and inactive are the calls of the source. No rule for the calls is given here.

System: M. tuberculosis H37Rv growth inhibition with meropenem
Assay: dose response, H37Rv, with and without meropenem (AID 434987);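 also: growth over 7 days at 37 °C before Alamar Blue read on day 9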
[1] = M. tuberculosis H37Rv growth inhibition, measured here: IC50 without meropenem
[2] = M. tuberculosis H37Rv growth inhibition, measured here: IC90 without meropenem
[3] = measured here: IC90 with meropenem

Structure (SMILES)	IC50	IC50 [1] [µM]	IC90 [2] [µM]	IC90 [3] [µM]
O=C(CN1CCN(c2ccc(F)cc2)CC1)Nc1ccccc1C(=O)NCCc1ccccc1	35.1 µM	> 100	> 100	> 100
CC(C)N1CCc2c(sc(NC(=O)c3cc(-c4cccs4)nc4ccccc34)c2C(N)=O)C1	13.7 µM (inactive)	24.8	> 100	> 100
Cn1cccc1/C=C1/C(=O)NC(=O)N(Cc2ccc(F)cc2)C1=O	23.7 µM (inactive)	46.2	> 50	> 50
COC(=O)c1cnn(-c2ccccc2)c1/C=N/NC(=S)Nc1ccc(Cl)cc1	33.1 µM	> 100	> 100	> 100
c1ccc2nc(-c3nc4ccccc4o3)ccc2c1	43.9 µM (inactive)	> 100	> 100	> 50
Cc1ccc(NC(=O)/C=C\C(=O)O)c([N+](=O)[O-])c1	56.7 µM (inactive)	95.7	> 100	> 100
CC(=O)Nc1ccc(SCC(=O)c2cc(C)n(CC(F)(F)F)c2C)cc1	47.7 µM (inactive)	53.5	> 100	> 100
c1ccc(-n2c3ccccc3c3ccccc32)cc1	3.27 µM	> 100	> 100	22.7
O=C(NC(=S)N1CCOCC1)c1ccc([N+](=O)[O-])cc1	20.7 µM (inactive)	46.8	> 100	> 100
COc1ccc(/C=C2/CCCC(C(=O)C(F)(F)F)=C2O)cc1OC	34.6 µM	96.9	> 100	> 100
CCc1ccc(NC(=S)Nc2ccc3cn[nH]c3c2)cc1	23.9 µM	> 100	> 100	> 100
COc1cccc(-c2nnn(CC(=O)Nc3cc(OC)c(NC(=O)c4ccco4)cc3OC)n2)c1	31.2 µM	> 100	> 100	> 100
C=CCNC(=S)NC(=O)c1csc([N+](=O)[O-])c1	27.8 µM (inactive)	49	> 50	> 100
COC(=O)c1sc(-c2ccc(C(C)(C)C)cc2)cc1NC(=O)CCC(=O)O	1.37 µM	23.8	> 100	28.7
COC(=O)c1c(C(=O)OC)c(C)n(Cc2ccco2)c1C	64.4 µM (inactive)	> 100	> 100	> 100
CCOC(=O)/C=c1\s/c(=C\c2c(OC)ccc3ccccc23)c(=O)n1CC(=O)NCC1CCCO1 (stereo unspecified)	> 100 µM (inactive)	> 100	> 100	> 100
COc1ccccc1NS(=O)(=O)c1cccc(N2CC(O)=C(c3ccccc3)C2=N)c1	8.71 µM (inactive)	21.1	> 100	16
COc1cc(C(=S)N2CCOCC2)ccc1OC(=O)c1ccc([N+](=O)[O-])cc1[N+](=O)[O-]	3.24 µM (inactive)	6.01	7.13	5.92
CCCCCc1nnc(NC(=O)C2COc3ccccc3O2)s1 (stereo unspecified)	62.5 µM (inactive)	> 100	> 100	> 100
O=C(NCc1ccco1)c1cc2n(n1)C(C(F)(F)F)CC(c1ccc(F)cc1)N2 (stereo unspecified)	> 100 µM (inactive)	> 100	> 100	> 100
CCOc1ccc2c(c1)c(C(C)=O)c(C)n2-c1ccccc1	< 0.2 µM	> 100	> 100	1.96
Cc1ccc(NC(=O)C2(c3ccccc3)CC2(Cl)Cl)cc1C (stereo unspecified)	> 100 µM (inactive)	> 100	> 100	> 100
CCOC(=O)c1cc(-c2ccccc2)sc1NC(=O)C(C)N1C(=O)NC(C)(c2ccc(Cl)cc2)C1=O (stereo unspecified)	> 100 µM (inactive)	> 100	> 100	> 100
CC1(C)CC(CCNC(=O)CCl)(c2ccccc2)CCO1 (stereo unspecified)	2.38 µM	9.13	34.7	8.14
CCOC(=O)/C(C#N)=C/c1ccc(OCC(=O)Nc2ccccc2)c(OC)c1	98.4 µM (inactive)	> 100	> 100	> 100
COC(=O)Cn1c2ccccc2c2nc(C)sc21	18.9 µM (inactive)	25.4	44.4	27.8
CCOc1ccc(-c2nc(-c3ccccc3C)no2)cc1	> 100 µM (inactive)	> 100	> 100	> 100
Cc1onc(-c2ccccc2Cl)c1C(=O)NCc1ccc2c(c1)cc(C)n2C	16.6 µM (inactive)	39	58.5	29.4
C[C@H]1C=CC(=O)O[C@H]1c1ccccc1	21 µM (inactive)	43.7	60.6	49.5
